In patent US20090203908A1, “Activator for Peroxisome Proliferator-Activated Receptor” (NIPPON CHEMIPHAR CO., LTD., priority 2005, published 2009):
Like-named read-outs stand apart in the source and are kept apart here.

Columns and labels:
hPPAR α (LBD) = molecular target: T1, hPPAR α (LBD) (Homo sapiens, UniProt Q07869); assay: PPAR activating effect, GAL4-hPPARα (LBD) luciferase reporter in CV-1 cells
T1 sequence (Q07869 239-466 limits assumed): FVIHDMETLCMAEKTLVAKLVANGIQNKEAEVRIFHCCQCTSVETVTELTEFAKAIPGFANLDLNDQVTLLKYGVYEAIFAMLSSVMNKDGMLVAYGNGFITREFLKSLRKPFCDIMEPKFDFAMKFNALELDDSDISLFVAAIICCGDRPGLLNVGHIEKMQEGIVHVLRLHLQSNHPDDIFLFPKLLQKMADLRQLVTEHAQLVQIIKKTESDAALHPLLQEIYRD
Experimental: (§1) For determining PPAR activating effects of the compounds according to the invention were measured by the following method:
(§2) After gene transfer utilizing a lipofection reagent DMRIE-C or Lipofectamin 2000 (Invitrogen), it is incubated for 42 hours in the presence of the test compound. Then, the luciferase activity and β-GAL activity are measured on the soluble cells. The luciferase activity is calibrated by the β-GAL activity.
(§3) The PPAR activating effects of test compounds (compounds of Examples) were measured by the following method:
(§4) After gene transfer utilizing a lipofection reagent DMRIE-C or Lipofectamin 2000 (Invitrogen), it is incubated for approx. 40 hours in the presence of the test compound. Then, the luciferase activity and β-GAL activity are measured on the soluble cells. The luciferase activity is calibrated by the β-GAL activity. […] Then, EC50 was obtained.

hPPAR γ (LBD) = molecular target: T2, hPPAR γ (LBD) (Homo sapiens, UniProt P37231); assay: PPAR activating effect, GAL4-hPPARγ (LBD) luciferase reporter in CV-1 cells
T2 sequence (P37231 238-503 limits assumed): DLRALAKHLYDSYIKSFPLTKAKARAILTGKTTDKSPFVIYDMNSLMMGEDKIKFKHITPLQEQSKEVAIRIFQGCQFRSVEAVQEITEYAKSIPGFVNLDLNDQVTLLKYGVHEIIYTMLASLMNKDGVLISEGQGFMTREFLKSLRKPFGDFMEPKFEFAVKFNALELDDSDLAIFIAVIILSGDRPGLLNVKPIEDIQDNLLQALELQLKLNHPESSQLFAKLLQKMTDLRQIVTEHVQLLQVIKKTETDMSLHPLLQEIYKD
Experimental: as §1, §2, §3, §4

hPPAR δ (LBD) = molecular target: T3, hPPAR δ (LBD) (Homo sapiens, UniProt Q03181); assay: PPAR activating effect, GAL4-hPPARδ (LBD) luciferase reporter in CV-1 cells
T3 sequence (Q03181 211-439 limits assumed): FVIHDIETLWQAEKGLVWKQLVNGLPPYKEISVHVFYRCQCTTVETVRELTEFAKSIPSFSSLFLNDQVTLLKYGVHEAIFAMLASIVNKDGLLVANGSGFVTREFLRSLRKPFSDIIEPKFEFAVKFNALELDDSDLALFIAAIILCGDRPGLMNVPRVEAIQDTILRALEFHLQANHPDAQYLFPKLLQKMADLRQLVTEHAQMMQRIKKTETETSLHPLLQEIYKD
Experimental: as §1, §2, §3, §4

hPPAR α or γ or δ (LBD) = assay: PPAR activating effect, overall assessment over the subtypes (GAL4-hPPAR luciferase reporter in CV-1 cells); conditions: summary of Table 17, PPARα and PPARγ
Experimental: as §1, §2, §3, §4

Row | EC50 (hPPAR α (LBD)) [nM] | EC50 (hPPAR γ (LBD)) [nM] | EC50 (hPPAR δ (LBD)) [µM] | SMILES | PPARα agonist effect (in words) (hPPAR α (LBD); summary of Table 17) | α/γ dual agonist effects (in words) (hPPAR α or γ or δ (LBD)) | EC50 (hPPAR δ (LBD); read-out: PPAR activity: EC50, δ, CV-1 cells, approx. 40 hours incubation, 100% control GW-501516 10^−7 M) [µM]
1 | > 10000 | 660 | 0.92 | COc1ccc(N2CCN(Cc3nc(-c4ccc(C(F)(F)F)cc4)sc3CCC(=O)c3ccc(OC(C)(C)C(=O)O)c(C)c3)CC2)cc1 [Example 3, 2-[4-[3-[4-[4-(4-Methoxyphenyl)piperazin-1-yl-methyl]-2-(4-trifluoromethylphenyl)-5-thiazolyl]propionyl]-2-methylphenoxy]-2-methylpropionic Acid] | – | – | –
2 | 550 | 490 | 4.9 | Cc1ccc(N2CCN(Cc3nc(-c4ccc(C(F)(F)F)cc4)sc3CCC(=O)c3ccc(OC(C)(C)C(=O)O)c(C)c3)CC2)cc1 [Example 6, 2-[4-[3-[4-[4-(4-Methylphenyl)piperazin-1-yl-methyl]-2-(4-trifluoromethylphenyl)-5-thiazolyl]propionyl]-2-methylphenoxy]-2-methylpropionic Acid] | – | – | –
3 | 92 | 300 | 3 | Cc1cc(C(=O)CCc2sc(-c3ccc(C(F)(F)F)cc3)nc2CN2CCN(c3ccc(C(C)C)cc3)CC2)ccc1OC(C)(C)C(=O)O [Example 11, 2-[4-[3-[4-[4-(4-Isopropylphenyl)piperazin-1-ylmethyl]-2-(4-trifluoromethylphenyl)-5-thiazolyl]propionyl]-2-methylphenoxy]-2-methylpropionic Acid] | – | good α/γ dual agonist effects | –
4 | 330 | 280 | 1.1 | CCOc1ccc(N2CCN(Cc3nc(-c4ccc(C(F)(F)F)cc4)sc3CCC(=O)c3ccc(OC(C)(C)C(=O)O)c(C)c3)CC2)cc1 [Example 13, 2-[4-[3-[4-[4-(4-Ethoxyphenyl)piperazin-1-yl-methyl]-2-(4-trifluoromethylphenyl)-5-thiazolyl]propionyl]-2-methylphenoxy]-2-methylpropionic Acid] | – | – | –
5 | 180 | 290 | 2.3 | Cc1cc(C(=O)CCc2sc(-c3ccc(C(F)(F)F)cc3)nc2CN2CCN(c3ccc(OC(C)C)cc3)CC2)ccc1OC(C)(C)C(=O)O [Example 16, 2-[4-[3-[4-[4-(4-Isopropyloxyphenyl)piperazin-1-ylmethyl]-2-(4-trifluoromethylphenyl)-5-thiazolyl]propionyl]-2-methylphenoxy]-2-methylpropionic Acid] | – | good α/γ dual agonist effects | –

The remaining lines, values behind:

Row | SMILES | EC50 (hPPAR α (LBD)) [nM] | EC50 (hPPAR γ (LBD)) [nM] | EC50 (hPPAR δ (LBD)) [µM] | PPARα agonist effect (in words) (hPPAR α (LBD); summary of Table 17) | α/γ dual agonist effects (in words) (hPPAR α or γ or δ (LBD)) | EC50 (hPPAR δ (LBD); read-out: PPAR activity: EC50, δ, CV-1 cells, approx. 40 hours incubation, 100% control GW-501516 10^−7 M) [µM]
6 | COc1cccc(N2CCN(Cc3nc(-c4ccc(C(F)(F)F)cc4)sc3CCC(=O)c3ccc(OC(C)(C)C(=O)O)c(C)c3)CC2)c1 [Example 4, 2-[4-[3-[4-[4-(3-Methoxyphenyl)piperazin-1-yl-methyl]-2-(4-trifluoromethylphenyl)-5-thiazolyl]propionyl]-2-methylphenoxy]-2-methylpropionic Acid] | 210 | 1300 | 4.4 | – | – | –
7 | Cc1cc(C(=O)CCc2sc(-c3ccc(C(F)(F)F)cc3)nc2CN2CCN(c3ccc(C(F)(F)F)cc3)CC2)ccc1OC(C)(C)C(=O)O [Example 5, 2-[4-[3-[4-[4-(4-Trifluoromethylphenyl)-piperazin-1-ylmethyl]-2-(4-trifluoromethylphenyl)-5-thiazolyl]propionyl]-2-methylphenoxy]-2-methylpropionic Acid] | 90 | 3200 | 5.2 | strong and selective PPARα agonist effect | – | –
8 | COc1ccc(N2CCN(Cc3nc(-c4ccc(C(F)(F)F)cc4)sc3CCC(=O)c3ccc(OC(C)(C)C(=O)O)c(C)c3)CC2)cc1OC [Example 12, 2-[4-[3-[4-[4-(3,4-Dimethoxyphenyl)piperazin-1-ylmethyl]-2-(4-trifluoromethylphenyl)-5-thiazolyl]propionyl]-2-methylphenoxy]-2-methylpropionic Acid] | 940 | 1700 | 3.8 | – | – | –
9 | Cc1cc(C(=O)CCc2sc(-c3ccc(C(F)(F)F)cc3)nc2CN2CCN(c3ccc(OC(F)(F)F)cc3)CC2)ccc1OC(C)(C)C(=O)O [Example 15, 2-[4-[3-[4-[4-(4-Trifluoromethoxyphenyl)piperazin-1-ylmethyl]-2-(4-trifluoromethylphenyl)-5-thiazol-yl]propionyl]-2-methylphenoxy]-2-methylpropionic Acid] | 290 | 750 | 6.3 | – | – | –
10 | COc1ccc(CC2SC(=O)NC2=O)cc1C(=O)NCc1ccc(C(F)(F)F)cc1 (stereo not shown) [KRP-297, reference compound] | – | – | – | – | – | 13.9
